Among the data in patent US20250051327A1, “MALT-1 MODULATORS” (EXSCIENTIA AI LIMITED, priority 2020, published 2025) are IC50 values, retold here.

One may read the IC50 as the concentration that gives 50% inhibition.

Each structure is given as a SMILES string.

Test [1] addresses Recombinant human MALT-1 (amino acids 340-824) (Homo sapiens (Human), UniProt Q9UDY8). Nature of the test: MALT-1 inhibition assay (fluorogenic substrate Ac-LRSR-Rh110-DP). It counts as biochemical. As to conditions: recombinant human MALT-1, substrate Ac-LRSR-Rh110-DP. Put shortly:
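Reactions were started with fluorogenic substrate Ac-LRSR-Rh110-DP (10 μM final) against 3 nM enzyme and kept dark at 25° C for 60 minutes. IC50 values came from 4-parameter logistic fits of percent inhibition calculated from relative fluorescence units.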

Test [2] has as its system IL-2 secretion by human effector memory T cells (TEM). Description: Effector memory T cells IL-2 release assay. In kind it is cell-based. As to conditions: T-cell; human CD4+ effector memory T cells, CD3/CD28 bead stimulation, 24 h; read-out: CD4TC IL2 IC50. Put shortly:
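Human CD4+ effector memory T cells from healthy-donor buffy coats were stimulated with anti-CD3/CD28 Dynabeads and exposed to 10 semi-log compound doses (0.1% DMSO) for 24 h at 37 °C. Supernatant IL-2 was measured by HTRF, and IC50 came from a 4-parameter logistic fit to maximal IL-2. Viability was checked by flow cytometry.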

Recombinant human MALT-1 (amino acids 340-824), sequence (Q9UDY8 340-824): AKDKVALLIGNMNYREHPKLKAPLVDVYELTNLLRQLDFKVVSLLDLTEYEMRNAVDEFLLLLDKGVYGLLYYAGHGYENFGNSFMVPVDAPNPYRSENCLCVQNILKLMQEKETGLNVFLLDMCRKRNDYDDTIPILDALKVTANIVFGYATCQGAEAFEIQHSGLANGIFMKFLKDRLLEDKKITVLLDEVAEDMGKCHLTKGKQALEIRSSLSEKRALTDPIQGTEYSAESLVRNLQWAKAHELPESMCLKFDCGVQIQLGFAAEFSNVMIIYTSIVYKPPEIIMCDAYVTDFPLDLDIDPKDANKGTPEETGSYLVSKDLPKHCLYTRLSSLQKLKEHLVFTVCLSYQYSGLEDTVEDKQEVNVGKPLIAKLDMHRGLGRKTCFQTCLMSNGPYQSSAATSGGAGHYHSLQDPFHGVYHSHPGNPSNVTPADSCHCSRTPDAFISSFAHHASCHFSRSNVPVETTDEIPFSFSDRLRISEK

For `CC(=O)N1CC[C@@H](C(=O)N(C)[C@@H](c2ccc(N3CCCc4c3cnc3cc(Cl)nn43)cc2)C(F)(F)F)C1` (relative stereo) [CPD0073188, (3rel-R)-1-acetyl-N-[(1S)-1-(4-{4-chloro-2,3,7,10-tetraazatricyclo[7.4.0.0^2,6]trideca-1(9),3,5,7-tetraen-10-yl}phenyl)-2,2,2-trifluoroethyl]-N-methylpyrrolidine-3-carboxamide], the IC50 in test [1] came to 113 nM; in test [2], 235 nM.
Consider `CN(C(=O)[C@H]1C[C@@H]([S@+](C)(=N)[O-])C1)[C@@H](c1ccc(N2CCCc3c2cnc2cc(Cl)nn32)cc1)C(F)(F)F` [CPD0073224, (1S,3s)-N-[(1S)-1-(4-{4-chloro-2,3,7,10-tetraazatricyclo[7.4.0.0^2,6]trideca-1(9),3,5,7-tetraen-10-yl}phenyl)-2,2,2-trifluoroethyl]-3-[(S)-imino(methyl)oxo-λ^6-sulfanyl]-N-methylcyclobutane-1-carboxamide], for which the half-maximal inhibitory concentration (IC50) in test [1] came out at 56 nM; in test [2] it was 181 nM.
The matching figures for `CN(C(=O)C1CCS(=O)(=O)CC1)[C@@H](c1ccc(N2CC(C)(C)c3c2cnc2cc(Cl)nn32)cc1)C(F)(F)F` [CPD0019494, N-[(1S)-1-(4-{11-chloro-3,3-dimethyl-1,5,8,12-tetraazatricyclo[7.3.0.0^2,6]dodeca-2(6),7,9,11-tetraen-5-yl}phenyl)-2,2,2-trifluoroethyl]-N-methyl-1,1-dioxo-1λ^6-thiane-4-carboxamide]: 25 nM and 59 nM.
`CN(C)CC(=O)N1CC[C@H](C(=O)N(C)[C@@H](c2ccc(N3CCCc4c3cnc3cc(Cl)nn43)cc2)C(F)(F)F)C1` (relative stereo) [CPD0075876, (3rel-R)-N-[(1S)-1-[4-(4-chloro-2,3,7,10-tetrazatricyclo[7.4.0.0^2,6]trideca-1(9),3,5,7-tetraen-10-yl)phenyl]-2,2,2-trifluoro-ethyl]-1-[2-(dimethylamino)acetyl]-N-methyl-pyrrolidine-3-carboxamide]: the IC50 in test [1] came to 138 nM; in test [2], 207 nM.
Turning to `CN(C(=O)C1CCCO1)[C@@H](c1ccc(N2CCCc3c2cnc2cc(Cl)nn32)cc1)C(F)(F)F` (stereo partly drawn) [CPD0021570, N-[(1S)-1-(4-{4-chloro-2,3,7,10-tetraazatricyclo[7.4.0.0^2,6]trideca-1(9),3,5,7-tetraen-10-yl}phenyl)-2,2,2-trifluoroethyl]-N-methyloxolane-2-carboxamide], the figures for the IC50 in test [1] and in test [2] were 147 nM and 142 nM, respectively.
The like results for `CN(C(=O)[C@H]1CCCS(=O)(=O)N1)[C@@H](c1ccc(N2CCCc3c2cnc2cc(Cl)nn32)cc1)C(F)(F)F` (relative stereo) [CPD0073560, (3rel-R)-N-[(1S)-1-(4-{4-chloro-2,3,7,10-tetraazatricyclo[7.4.0.0^2,6]trideca-1(9),3,5,7-tetraen-10-yl}phenyl)-2,2,2-trifluoroethyl]-N-methyl-1,1-dioxo-1λ^6,2-thiazinane-3-carboxamide] were, in that order, 92 nM and 157 nM.
The like results for `CN(C(=O)[C@H]1CC[S@@](=N)(=O)CC1)[C@@H](c1ccc(N2CCC3(CC3)c3c2cnc2cc(F)nn32)cc1)C(F)(F)F` (relative stereo) [CPD0072852, (1rel-s,4rel-s)-1-imino-N-methyl-1-oxo-N-[(1S)-2,2,2-trifluoro-1-(4-{4′-fluoro-2′,3′,7′,10′-tetraazaspiro[cyclopropane-1,13′-tricyclo[7.4.0.0^2,6]tridecane]-1′(9′),3′,5′,7′-tetraen-10′-yl}phenyl)ethyl]-1λ^6-thiane-4-carboxamide] were, in that order, 28 nM and 65 nM.
The matching figures for `CSc1cc2ncc3c(n2n1)CCCN3c1ccc([C@H](N(C)C(=O)C2CCS(=O)(=O)CC2)C(F)(F)F)cc1` [CPD0021815, N-methyl-1,1-dioxo-N-[(1S)-2,2,2-trifluoro-1-{4-[4-(methylsulfanyl)-2,3,7,10-tetraazatricyclo[7.4.0.0^2,6]trideca-1(9),3,5,7-tetraen-10-yl]phenyl}ethyl]-1λ^6-thiane-4-carboxamide]: 332 nM and 228 nM.
Regarding `CN(C(=O)[C@H]1CC[S@](=N)(=O)CC1)[C@@H](c1ccc(N2CCCc3c2cnc2cc(Cl)nn32)cc1)C(F)(F)F` (relative stereo) [CPD0072529, (1rel-r,4rel-r)-N-[(1S)-1-(4-{4-chloro-2,3,7,10-tetraazatricyclo[7.4.0.0^2,6]trideca-1(9),3,5,7-tetraen-10-yl}phenyl)-2,2,2-trifluoroethyl]-1-imino-N-methyl-1-oxo-1λ^6-thiane-4-carboxamide], the results for the IC50 in test [1] and in test [2] were 26 nM and 94 nM, respectively.
`CN(C(=O)C1CN(C(=O)[C@@H]2CCO2)C1)[C@@H](c1ccc(N2CCCc3c2cnc2cc(Cl)nn32)cc1)C(F)(F)F` (relative stereo) [CPD0073563, N-[(1S)-1-(4-{4-chloro-2,3,7,10-tetraazatricyclo[7.4.0.0^2,6]trideca-1(9),3,5,7-tetraen-10-yl}phenyl)-2,2,2-trifluoroethyl]-N-methyl-1-[(2rel-S)-oxetane-2-carbonyl]azetidine-3-carboxamide]: the IC50 in test [1] turned out to be 62 nM; in test [2] it was 269 nM.
The matching figures for `CN([C@@H](c1ccc(N2CCCc3c2cnc2cc(Cl)nn32)cc1)C(F)(F)F)[S+]([O-])C(C)(C)C` (stereo partly drawn) [CPD0021661]: 302 nM and 1470 nM.
On to `CN(C(=O)C1CCS(=N)(=O)CC1)[C@@H](c1ccc(N2CCCc3c2cnc2cc(Cl)nn32)cc1)C(F)(F)F` (stereo partly drawn) [CPD0021810], for which the half-maximal inhibitory concentration (IC50) was found to be 63 nM in test [1] and 194 nM in test [2].
Turning to `CN(C(=O)C[C@@H]1CCS(=O)(=O)C1)[C@@H](c1ccc(N2CCCc3c2cnc2cc(Cl)nn32)cc1)C(F)(F)F` (relative stereo) [CPD0072800, N-[(1S)-1-(4-{4-chloro-2,3,7,10-tetraazatricyclo[7.4.0.0^2,6]trideca-1(9),3,5,7-tetraen-10-yl}phenyl)-2,2,2-trifluoroethyl]-2-[(3rel-R)-1,1-dioxo-1λ^6-thiolan-3-yl]-N-methylacetamide], the IC50 in test [1] worked out at 92 nM; in test [2], 187 nM.
The like results for `CN(C(=O)C1CCS(=N)(=O)CC1)[C@@H](c1ccc(N2CC3(CC3)Cc3c2cnc2cc(Cl)nn32)cc1)C(F)(F)F` (stereo partly drawn) [CPD0073761, N-[(1S)-1-[4-(4-chlorospiro[2,3,7,10-tetrazatricyclo[7.4.0.0^2,6]trideca-1(9),3,5,7-tetraene-12,1′-cyclopropane]-10-yl)phenyl]-2,2,2-trifluoro-ethyl]-1-imino-N-methyl-1-oxo-thiane-4-carboxamide] were, in that order, 78 nM and 317 nM.
Regarding `CN(C(=O)C1CC1)[C@@H](c1ccc(N2CCCc3c2cnc2cc(Cl)nn32)cc1)C(F)(F)F` [CPD0019354, N-[(1S)-1-(4-{4-chloro-2,3,7,10-tetraazatricyclo[7.4.0.0^2,6]trideca-1(9),3,5,7-tetraen-10-yl}phenyl)-2,2,2-trifluoroethyl]-N-methylcyclopropanecarboxamide], the half-maximal inhibitory concentration (IC50) in test [1] is 164 nM; in test [2] it was 83 nM.
